These results are taken from patent US9822157B2 (priority 2013, dated 2017).

The assay deals with T1, human ferroportin (Homo sapiens, UniProt Q9NP59).
T1 sequence (Q9NP59 1-571): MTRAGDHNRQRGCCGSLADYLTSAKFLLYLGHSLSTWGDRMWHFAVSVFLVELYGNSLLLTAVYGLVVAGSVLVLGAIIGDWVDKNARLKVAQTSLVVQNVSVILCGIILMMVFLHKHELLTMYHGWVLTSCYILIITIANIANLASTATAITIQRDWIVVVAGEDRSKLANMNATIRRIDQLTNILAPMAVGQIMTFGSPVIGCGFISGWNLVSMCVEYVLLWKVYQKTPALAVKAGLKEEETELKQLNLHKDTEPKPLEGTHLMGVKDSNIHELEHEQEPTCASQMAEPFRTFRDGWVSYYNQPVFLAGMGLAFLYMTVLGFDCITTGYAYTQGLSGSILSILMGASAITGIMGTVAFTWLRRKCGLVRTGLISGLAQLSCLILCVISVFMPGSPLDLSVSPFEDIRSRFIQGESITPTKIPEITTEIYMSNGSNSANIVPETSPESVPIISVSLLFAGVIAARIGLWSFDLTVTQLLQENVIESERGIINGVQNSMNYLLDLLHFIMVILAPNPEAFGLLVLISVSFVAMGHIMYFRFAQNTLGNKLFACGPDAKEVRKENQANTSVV
Type of assay: cell-based. To be noted: for % Activity At 1 uM: at 1 uM peptide, monomers and disulphide-linked dimers. The source says:
The cDNA encoding the human ferroportin (SLC40A1) was cloned from a cDNA clone from Origene (NM_014585). The DNA encoding the ferroportin was amplified by PCR using primers also encoding terminal restriction sites for subcloning, but without the termination codon. The ferroportin receptor was subcloned into a mammalian GFP expression vector containing a neomycin (G418) resistance marker in such that the reading frame of the ferroportin was fused in frame with the GFP protein. The fidelity of the DNA encoding the protein was confirmed by DNA sequencing. HEK293 cells were used for transfection of the ferroportin-GFP receptor expression plasmid. The cells were grown according to standard protocol in growth medium and transfected with the plasmids using Lipofectamine (manufacturer's protocol, Invitrogen). […] The cells were propagated and frozen in aliquots.
A retro inverse peptide is a peptide with a reversed sequence in all D amino acids. […] The EC50 of these reference compounds for ferroportin degradation was determined according to the activity assay described above.

[1] abbreviates: Hepcidin analog peptides, read-out: Potency EC50.
[2] abbreviates: cysteine replacement scan of Mini-Hepcidin derivatives.
[3] abbreviates: read-out: EC50 (nM) (n > 3), alanine scan of Compound 18.
Where [4] appears, read: read-out: EC50 (nM) (n > 3), alanine scan of Compound 1.
The mark [5] stands for this setting: read-out: EC50 (n > 3), alanine scan of Compound 1.
Setting [6] is: read-out: EC50 (nM) (n = 3), in vitro activity as in Example 2, peptide monomers and dimers dimerized through a single disulphide linkage, n = 3.

Where two headings read alike, the source gives them in different places. * marks the point of attachment. Palmitoyl = CCCCCCCCCCCCCCCC(=O)*

With “H-DTHFPCIYFGPRSKGWVCK-NH2 (cysteine pairing not given here) [Compound 85]”, the 50% effective concentration (EC50) (usually the midpoint of the concentration-response curve) under setting [1] was determined as 0.705 µM. In the case of H-DTHFPCIF-NH2 [Compound 293], the “% Activity At 1 uM” value is on record as 52%. In the case of “Hy-DTHF-(D)--Ala-CIIF-NH2 [Compound 281]”, under “Hepcidin analog peptides”, the “Potency EC50 (nM)” value is recorded as “Inactive”. Moreover, under “alanine scan of Compound 1”, the “EC50 (nM) (n > 3)” value is reported as “Not active”. Regarding H-DTHFPIAIFAAICI-NH2 [Compound 270], the “Potency EC50 (nM)” value (Hepcidin analog peptides) is recorded as “Inactive”. In addition, the “EC50 (nM) (n > 3)” value under setting [2] is “Not active”.

Turning to “H-DTHFGCIIFGPRSKGWVCK-NH2 (cysteine pairing not given here) [Compound 123]”, the “Potency EC50 (nM)” value (Hepcidin analog peptides) is “Inactive”. As to “Isovaleric acid-HFPCIIFGPRSKGWVCK-NH2 [Compound 100]”, for the setting “Hepcidin analog peptides”, the “Potency EC50 (nM)” value is recorded as “Inactive”. On to “Hy-DTHF-[Sarc]-CIIFGPRSKGWVCK-NH2 [Compound 127]”, for which, where the note is “Hepcidin analog peptides”, the “Potency EC50 (nM)” value is “Inactive”. Still for that read-out and setting: to “H-DTHFRCIIFGPRSKGWVCK-NH2 (cysteine pairing not given here) [Compound 125]” belongs “Inactive”. Take “Palmitoyl-DTHFPCIKFGPRSKGWVCK-NH2 (cysteine pairing not given here) [Compound 216]”: the EC50 under setting [1] was > 1 µM. As to H-DTHFPCIEK-NH2 [Compound 310], the “% Activity At 1 uM” value was determined as 0%. Where the note is “read-out: EC50 (n = 3), cells printed in μM, in vitro activity as in Example 2, peptide monomers and dimers dimerized through a single disulphide linkage, n = 3”, the EC50 was > 1 µM. With “H-DTHFPICIFGPRAKGWVCM-NH2 (cysteine pairing not given here) [Compound 16]”, the concentration for a half-maximal effect (EC50) reads like this: under setting [1], 0.088 µM; under setting [3], 0.088 µM. Take “H-DTHFPCIIFGPRSKGWVCK-NH2 (cysteine pairing not given here) [Compound 86]”: the concentration for a half-maximal effect (EC50) under setting [1] was > 1 µM. “Hy-DTHF-[β-Ala]-CIIFGPRSKGWVCK-NH2 [Compound 129]”: for the setting “Hepcidin analog peptides”, the “Potency EC50 (nM)” value is “Inactive”. As to H-DTHFPCIAF-NH2 [Compound 51], the 50% effective concentration (EC50) by setting is: under setting [1], 0.382 µM; under setting [4], 0.382 µM. Regarding “H-ATHFPICIFGPRSKGWVCM-NH2 (cysteine pairing not given here) [Compound 33]”, the EC50 stood at 0.184 µM under setting [1] and 0.184 µM under setting [3]. With “H-EDTHFPCIIFGPRSKGWVCM-NH2 (cysteine pairing not given here) [Compound 137]”, the EC50 under setting [1] was 0.873 µM. Take “H-DTHFPICIFAPRSKGWVCM-NH2 (cysteine pairing not given here) [Compound 22]”: the concentration giving a half-maximal response (EC50) reads like this: under setting [1], 9.43 µM; under setting [3], 9.43 µM. With H-DTHFACIIF-NH2 [Compound 280], the EC50 was > 1 µM under setting [1] and > 1 µM under setting [5].

With Hy-ETHFPCIIF-NH2 [Compound 300], the “% Activity At 1 uM” value is 77%. Under setting [6], the concentration for a half-maximal effect (EC50) was > 0.3 µM. Turning to H-DTHFPCIEF-NH2 [Compound 287], the EC50 under setting [1] is > 1 µM.

As for “Isovaleric acid-DTHFPAIIF-NH2 [Compound 289]”, the “Potency EC50 (nM)” value (Hepcidin analog peptides) is “Inactive”. As for H-DTHFPCIVF-NH2 [Compound 307], the “% Activity At 1 uM” value was 75%. The 50% effective concentration (EC50) under setting [6] is > 0.3 µM. For H-DTHFPCIIFK-NH2 [Compound 55], under setting [1], the EC50 turned out to be 0.419 µM. Regarding H-DTHFPIAIFAICI-NH2 [Compound 271], the “Potency EC50 (nM)” value (Hepcidin analog peptides) was “Inactive”. For the same substance, the “EC50 (nM) (n > 3)” value under setting [2] was “Not active”. On to H-DTAFPCIIF-NH2 [Compound 283], for which the EC50 reads like this: under setting [1], 0.739 µM; under setting [4], 0.739 µM. As to “H-DTHFPICIFGPASKGWVCM-NH2 (cysteine pairing not given here) [Compound 34]”, the EC50 under setting [1] came out at 0.206 µM and the EC50 under setting [3] was 0.206 µM. Turning to H-DTHFPIAICI-NH2 [Compound 274], the “Potency EC50 (nM)” value (Hepcidin analog peptides) is listed as “Inactive”. Further, the “EC50 (nM) (n > 3)” value under setting [2] is “Not active”. With H-DTHFPCIFF-NH2 [Compound 56], the EC50 under setting [1] came to 0.441 µM. Consider “H-DTHFPICAFGPRSKGWVCM-NH2 (cysteine pairing not given here) [Compound 68]”, for which the 50% effective concentration (EC50) was > 10 µM under setting [1] and > 10 µM (read-out: EC50 (n > 3), alanine scan of Compound 18).

On to “H-THFPCIIFGPRSKGWVCK-NH2 (cysteine pairing not given here) [Compound 97]”, for which the “Potency EC50 (nM)” value (Hepcidin analog peptides) is given as “Inactive”. As for “H-DTHFAICIFGPRSKGWVCM-NH2 (cysteine pairing not given here) [Compound 26]”, the EC50 is, setting by setting: under setting [1], 0.147 µM; under setting [3], 0.147 µM. With “H-DTHFPCIIFGPRSRGVCK-NH2 (cysteine pairing not given here) [Compound 84]”, under setting [1], the EC50 was > 1 µM. The same measure, in the same setting: to “H-VDTHFPCIKFGPRSKGWVCK-NH2 (cysteine pairing not given here) [Compound 164]” belongs 0.146 µM. H-DTHFPIAIFICI-NH2 [Compound 272]: the “Potency EC50 (nM)” value (Hepcidin analog peptides) is “Inactive”. For the same substance, under setting [2], the “EC50 (nM) (n > 3)” value was “Not active”. As to “H-DTHFKCIIFGPRSKGWVCK-NH2 (cysteine pairing not given here) [Compound 131]”, the “Potency EC50 (nM)” value (Hepcidin analog peptides) is recorded as “Inactive”. For “H-DTHFPICIFGPRSKAWVCM-NH2 (cysteine pairing not given here) [Compound 31]”, the EC50 was determined as 0.175 µM under setting [1] and 0.175 µM under setting [3]. In the case of “Isovaleric acid-DTHFPCIKF-NH2 [Compound 291]”, the “% Activity At 1 uM” value is given as 100%.

Turning to “H-EDTHFPCIIFGPRSKGWVCK-NH2 (cysteine pairing not given here) [Compound 103]”, the concentration for a half-maximal effect (EC50) under setting [1] is > 1 µM.

As for H-DTHCPIAIF-NH2 [Compound 277], the “Potency EC50 (nM)” value (Hepcidin analog peptides) is “Inactive”. Under setting [2], the “EC50 (nM) (n > 3)” value is recorded as “Not active”.

For H-DAHFPCIIF-NH2 [Compound 52], the EC50 was determined as 0.388 µM under setting [1] and 0.388 µM under setting [4].

With “H-HFPCIIFGPRSKGWVCM-NH2 (cysteine pairing not given here) [Compound 133]”, under setting [1], the EC50 was > 1 µM. “Isovaleric acid-DTHFPSIIF-NH2 [Compound 290]”: the “Potency EC50 (nM)” value (Hepcidin analog peptides) was “Inactive”.

Consider “H-DTHFPICIFGPHRSKGWVCM-NH2 (cysteine pairing not given here) [Compound 27]”, for which, under setting [1], the EC50 stood at 0.149 µM. Regarding H-ATHFPCIIF-NH2 [Compound 284], the concentration giving a half-maximal response (EC50) runs as follows: under setting [1], > 1 µM; under setting [5], > 1 µM.

For the substance “H-DTHFPCISFGPRSKGWVCM-NH2 (cysteine pairing not given here) [Compound 135]”, the concentration giving a half-maximal response (EC50) under setting [1] came to 0.545 µM. Regarding H-DTHFPIICI-NH2 [Compound 275], the “Potency EC50 (nM)” value (Hepcidin analog peptides) was “Inactive”. Also, under setting [2], the “EC50 (nM) (n > 3)” value is recorded as “Not active”. Turning to H-DTHFPIAIFAAGICI-NH2 [Compound 269], the “Potency EC50 (nM)” value (Hepcidin analog peptides) is on record as “Inactive”. Moreover, the “EC50 (nM) (n > 3)” value under setting [2] is “Not active”. “H-DTHFPICIAGPRSKGWVCM-NH2 (cysteine pairing not given here) [Compound 67]”: the EC50 is, setting by setting: under setting [1], 2.47 µM; under setting [3], 2.47 µM.

Regarding “H-DTHFPCISFGPRSKGWVCK-NH2 (cysteine pairing not given here) [Compound 101]”, the half-maximal effective concentration (EC50) under setting [1] is > 1 µM.

Regarding “H-THFPCIIFGPRSKGWVCM-NH2 (cysteine pairing not given here) [Compound 132]”, the EC50 under setting [1] was > 1 µM.

For “H-DTAFPICIFGPRSKGWVCM-NH2 (cysteine pairing not given here) [Compound 60]”, the 50% effective concentration (EC50) runs as follows: under setting [1], 0.498 µM; under setting [3], 0.498 µM. Turning to H-DTHFPIAIICI-NH2 [Compound 273], for the setting “Hepcidin analog peptides”, the “Potency EC50 (nM)” value is “Inactive”. Besides, the “EC50 (nM) (n > 3)” value under setting [2] is “Not active”. For the substance “(Isovaleric acid-DTHFPCIKF-NH2)2 [Compound 326]”, the “% Activity At 1 uM” value was 100%. Regarding “H-DTHFPCIIFGPRARGWVCK-NH2 (cysteine pairing not given here) [Compound 87]”, the EC50 under setting [1] was > 1 µM. Turning to “H-DTHAPICIFGPRSKGWVCM-NH2 (cysteine pairing not given here) [Compound 38]”, the EC50 under setting [1] was 0.254 µM and the EC50 under setting [3] worked out at 0.254 µM.

With “H-DTHFPCIKFGPRSKGWVCM-NH2 (cysteine pairing not given here) [Compound 136]”, under setting [1], the 50% effective concentration (EC50) was 0.669 µM. For “H-DTHFPCIIFGPRSRGWRCK-NH2 (cysteine pairing not given here) [Compound 80]”, the concentration giving a half-maximal response (EC50) under setting [1] is > 1 µM.
